In publication PMC12521441 (Frontiers in Cellular and Infection Microbiology, 2025):

Columns and labels:
TBEV helicase = TBEV helicase (Tick-borne encephalitis virus, UniProt Q01299); test: biochemical; type: binding
DENV2 helicase = DENV2 helicase (Dengue virus type 2, UniProt P29990); test: Isothermal titration calorimetry, DENV2 helicase; type: binding; settings: ITC, 16°C
DENV4 helicase = DENV4 helicase (Dengue virus type 4, UniProt Q2YHF0); test: Isothermal titration calorimetry, DENV4 helicase; type: binding; settings: ITC
Chain of DENV4 helicase (Q2YHF0 1645-2092 limits assumed): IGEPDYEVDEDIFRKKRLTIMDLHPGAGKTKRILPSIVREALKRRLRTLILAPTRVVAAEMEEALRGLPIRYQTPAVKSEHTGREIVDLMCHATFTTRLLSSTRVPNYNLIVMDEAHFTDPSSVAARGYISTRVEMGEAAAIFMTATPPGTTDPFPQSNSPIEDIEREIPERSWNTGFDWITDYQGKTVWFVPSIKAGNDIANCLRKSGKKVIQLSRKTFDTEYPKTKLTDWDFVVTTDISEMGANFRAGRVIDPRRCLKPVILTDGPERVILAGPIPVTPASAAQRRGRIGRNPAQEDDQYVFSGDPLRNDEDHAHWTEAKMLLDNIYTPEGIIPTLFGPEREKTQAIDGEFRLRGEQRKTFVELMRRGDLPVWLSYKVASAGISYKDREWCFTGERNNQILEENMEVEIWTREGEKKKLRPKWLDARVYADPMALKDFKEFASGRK

YFV helicase = YFV helicase (Yellow fever virus, UniProt P03314); test: biochemical; type: binding
Chain of YFV helicase (P03314 1660-2107 limits assumed): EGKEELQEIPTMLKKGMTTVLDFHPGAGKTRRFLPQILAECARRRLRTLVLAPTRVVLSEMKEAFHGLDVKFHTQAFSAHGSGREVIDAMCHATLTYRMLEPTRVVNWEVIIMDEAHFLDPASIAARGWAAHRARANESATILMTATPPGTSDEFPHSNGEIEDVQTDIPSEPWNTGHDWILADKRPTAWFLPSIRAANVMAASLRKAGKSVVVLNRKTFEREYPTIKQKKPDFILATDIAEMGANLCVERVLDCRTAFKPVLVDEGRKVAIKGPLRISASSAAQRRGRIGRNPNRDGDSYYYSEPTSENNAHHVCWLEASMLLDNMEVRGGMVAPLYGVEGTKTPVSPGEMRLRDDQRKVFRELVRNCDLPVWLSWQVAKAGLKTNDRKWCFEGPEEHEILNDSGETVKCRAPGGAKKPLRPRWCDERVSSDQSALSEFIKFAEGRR

JEV helicase = biological target: T1, JEV helicase (Japanese encephalitis virus, UniProt P32886); test: Isothermal titration calorimetry, JEV helicase; type: binding; settings: ITC, 16°C
T1 sequence (P32886 1676-2123 limits assumed): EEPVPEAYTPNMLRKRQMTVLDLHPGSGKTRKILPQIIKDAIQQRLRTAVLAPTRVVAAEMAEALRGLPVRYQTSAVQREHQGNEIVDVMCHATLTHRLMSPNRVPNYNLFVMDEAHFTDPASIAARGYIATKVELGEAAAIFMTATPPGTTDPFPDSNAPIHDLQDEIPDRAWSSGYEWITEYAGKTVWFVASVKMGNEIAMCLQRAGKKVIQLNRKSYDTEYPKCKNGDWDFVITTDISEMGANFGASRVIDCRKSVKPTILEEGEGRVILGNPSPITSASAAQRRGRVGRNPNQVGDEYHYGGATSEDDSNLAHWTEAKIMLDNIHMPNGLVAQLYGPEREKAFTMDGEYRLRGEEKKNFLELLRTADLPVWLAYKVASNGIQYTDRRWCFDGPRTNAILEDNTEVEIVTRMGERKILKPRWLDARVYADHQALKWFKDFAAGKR

[1] = at higher doses, preclinical models; ref Finnerty et al., 1992; cited from earlier work
ZIKV helicase = biological target: T2, ZIKV helicase (Zika virus, UniProt Q32ZE1); test: Isothermal titration calorimetry, ZIKV helicase; type: binding; settings: ITC, 16°C
T2 sequence (Q32ZE1 1670-2115 limits assumed): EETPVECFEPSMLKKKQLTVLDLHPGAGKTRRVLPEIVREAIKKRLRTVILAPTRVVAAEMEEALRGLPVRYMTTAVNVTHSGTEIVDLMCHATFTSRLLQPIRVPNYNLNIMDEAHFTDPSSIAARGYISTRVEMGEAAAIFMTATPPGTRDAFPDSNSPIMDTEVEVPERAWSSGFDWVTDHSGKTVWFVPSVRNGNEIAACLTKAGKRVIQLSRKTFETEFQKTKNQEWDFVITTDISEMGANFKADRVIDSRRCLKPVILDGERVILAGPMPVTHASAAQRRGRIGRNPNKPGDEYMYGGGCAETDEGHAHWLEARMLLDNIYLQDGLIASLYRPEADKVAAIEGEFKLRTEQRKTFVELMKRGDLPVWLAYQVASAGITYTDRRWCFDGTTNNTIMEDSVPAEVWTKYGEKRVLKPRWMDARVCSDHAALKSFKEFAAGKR

[2] = rats, radiolabeled Zafirlukast; ref Zeng et al., 2020; cited from earlier work

Chain of TBEV helicase (Q01299 1666-2110 limits assumed): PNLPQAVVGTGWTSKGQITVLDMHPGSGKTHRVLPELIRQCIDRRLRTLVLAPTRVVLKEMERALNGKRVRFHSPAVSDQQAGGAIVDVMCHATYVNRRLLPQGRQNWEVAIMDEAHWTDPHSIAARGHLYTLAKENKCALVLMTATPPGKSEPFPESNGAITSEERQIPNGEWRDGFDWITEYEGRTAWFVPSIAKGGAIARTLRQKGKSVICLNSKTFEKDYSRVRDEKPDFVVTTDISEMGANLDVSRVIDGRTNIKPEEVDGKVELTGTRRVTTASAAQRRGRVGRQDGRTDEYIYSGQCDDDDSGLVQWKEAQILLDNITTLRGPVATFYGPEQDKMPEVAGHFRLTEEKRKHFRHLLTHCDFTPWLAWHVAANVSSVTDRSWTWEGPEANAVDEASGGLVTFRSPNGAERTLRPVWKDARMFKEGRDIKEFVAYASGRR
Chain of DENV2 helicase (P29990 1646-2093 limits assumed): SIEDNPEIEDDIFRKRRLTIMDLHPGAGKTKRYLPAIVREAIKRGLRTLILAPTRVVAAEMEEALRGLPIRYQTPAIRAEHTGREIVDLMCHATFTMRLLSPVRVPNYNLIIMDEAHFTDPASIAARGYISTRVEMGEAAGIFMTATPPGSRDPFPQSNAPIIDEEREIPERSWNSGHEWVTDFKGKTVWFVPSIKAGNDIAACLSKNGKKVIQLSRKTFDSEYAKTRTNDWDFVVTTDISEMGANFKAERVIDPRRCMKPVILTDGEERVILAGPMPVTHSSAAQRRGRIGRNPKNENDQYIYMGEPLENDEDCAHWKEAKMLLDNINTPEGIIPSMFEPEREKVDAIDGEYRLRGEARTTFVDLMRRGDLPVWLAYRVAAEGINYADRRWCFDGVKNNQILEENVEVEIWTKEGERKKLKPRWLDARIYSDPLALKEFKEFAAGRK

COc1cc(C(=O)NS(=O)(=O)c2ccccc2C)ccc1Cc1cn(C)c2ccc(NC(=O)OC3CCCC3)cc12 [Zafirlukast]
Kd (TBEV helicase): 361 µM | Kd (DENV2 helicase): 2730 nM | Kd (DENV4 helicase): 1570 nM | Kd (YFV helicase): 6.59 µM | Kd (JEV helicase): 199 µM | Tumor incidence [1]: increased incidence of hepatocellular tumors, histiocytic sarcoma, and bladder cancer | Kd (ZIKV helicase): 13.9 µM | Distribution across the blood-brain barrier [2]: minimal distribution across the blood–brain barrier
